From patent US6794509B1, “Compounds for fluorescence labeling” (Fuji Photo Film Co., Ltd., priority 1999, dated 2004)

Experiments:
[1] = Comparison of relative fluorescence quantum yield (absorption and fluorescence spectra of dye solutions); assay type: physicochemical; conditions: for Absorption maximum (nm) / Fluorescence maximum (nm): ethanol solution of dye; for Fluorescence maximum (nm) / Relative fluorescence quantum yield: absorbance 0.1 at 620 nm; for Fluorescence maximum (nm): spectrum measured at 620 nm; for Relative fluorescence quantum yield: ethanol solution, area of fluorescence spectrum relative to Crystal Violet (Φf=0.54)
Experimental: Measurement and calculation of relative quantum yield were performed according to the method described in Journal of Chemical Society, Faraday Trans., 92, 4917-4925 (1996). The structures of the conventional cyanine dye used as comparative dyes are shown below.
(2) Fluorescence spectrum was measured at an […] wavelength of 620 nm.
(3) Area value of fluorescence spectrum was calculated.
(4) Relative value was calculated based on the area value of Crystal Violet of which absolute fluorescence quantum yield was known (Φf=0.54).

[2] = known value of the standard; cited from earlier work

Structure (SMILES)	Absorption maximum (nm) [1]	Fluorescence maximum (nm) [1]	Relative fluorescence quantum yield [1]	absolute fluorescence quantum yield (Φf) [2]
CC[N+]1=C(/C=C/C=C/C=C2/N(CCCCCC(=O)O)c3ccc(S(=O)(=O)[O-])cc3C2(C)C)C(C)(C)c2cc(S(=O)(=O)[O-])ccc21.[K+] [compound 2, reference compound]	645 nm	664 nm	0.27	
CN(C)c1ccc(C(=C2C=CC(=[N+](C)C)C=C2)c2ccc(N(C)C)cc2)cc1 [Crystal Violet]				0.54

More lines, main results first:

Absorption maximum (nm) [1]	Fluorescence maximum (nm) [1]	Relative fluorescence quantum yield [1]	Structure (SMILES)	absolute fluorescence quantum yield (Φf) [2]
650 nm	671 nm	0.62	CC1(C)C2=CC(C#Cc3cccc(N(CCCS(=O)(=O)[O-])S(C)(=O)=O)c3)=CN(CCCCCC(=O)O)C2=N/C1=C\C=C\C1=Nc2c(cc(C#Cc3cccc(N(CCCS(=O)(=O)[O-])S(C)(=O)=O)c3)c[n+]2CCCS(=O)(=O)[O-])C1(C)C.[K+].[K+] [Compound I-12]	
651 nm	672 nm	0.63	CC(CCN1C=C(C#Cc2ccc(N(CCCS(=O)(=O)[O-])S(C)(=O)=O)cc2)C=C2C1=N/C(=C\C=C\C1=Nc3c(cc(C#Cc4ccc(N(CCCCCC(=O)O)S(C)(=O)=O)cc4)c[n+]3CCC(C)S(=O)(=O)[O-])C1(C)C)C2(C)C)S(=O)(=O)[O-].[K+].[K+] (stereo not shown) [Compound I-13]	
651 nm	672 nm	0.63	CC(CC[n+]1cc(C#Cc2ccc(N(CCCS(=O)(=O)[O-])S(C)(=O)=O)cc2)cc2c1N=C(/C=C/C=C1\N=C3C(=CC(C#Cc4ccc(N(CCCS(=O)(=O)[O-])S(C)(=O)=O)cc4)=CN3CCCCCC(=O)O)C1(C)C)C2(C)C)S(=O)(=O)[O-].[K+].[K+] (stereo not shown) [Compound I-11]	
